# In patent publication US11191735B2, “Arginine silicate for periodontal disease” (NUTRITION 21, LLC, priority 2015, dated 2021):
# Where two headings read alike, the source gives them in different places. Marks after values point to notes of the source that are not given here.
# Key:
# [1] = system: early to mild periodontitis
# Source text: The study group comprises ten systemically healthy subjects with early to mild periodontitis. […] Prior to any treatment procedure, oral hygiene instructions (OHI) are given. Each quadrant of the subjects is randomly assigned to one of the following groups: (A) scaling and root planning combined with daily administration of arginine silicate post-treatment, (B) scaling and root planning alone, (C) daily administration of arginine silicate alone, and (D) OHI alone.
# Subjects are re-examined at one week, four weeks, eight weeks, and 12 weeks.
# [2] = system: experimental periodontal disease (ligature model); conditions: for ICI Dense, animals / ICI Little visible, animals / ICI Slightly visible, animals: n=13
# Description: (§1) All animals and surgical procedures were handled in accordance with guidelines of the Chancellor's Animal Research Committee of the Office for Protection of Research Subjects at the University of Inonu, Malatya, Turkey (2013/A-12). Fifty-two (2-month-old) female Sprague-Dawley rats weighing […] (Experimental Research Center of Inonu University) were kept in temperature-controlled cages (approximately 25° C.), exposed to a 24-hr light-dark cycle of equal time, and had free access to water and food ad libitum.
# (§2) The fifty-two rats were randomly divided into four groups: the non-ligated treatment (Control) group (n=13), the ligature-only (L) group (n=13), the ligature plus ASI (“arginine-silicate-inositol;” Nutrition 21, NY, USA, see, e.g. U.S. Pat. Nos. 5,707,970 and 7,576,132) with dose of 1.81 mg/kg of diet group (designated “ASI I”), (n=13), the ligature plus ASI with dose of 3.62 mg/kg of diet group (designated “ASI II”) (n=13).
# (§3) For all the studies described herein, the well-characterized ligature model of placing a sterile wire ligature around the crown of the right first maxillary molar was utilized. Rats were anesthetized with Rompun®, 10 mg/kg ve Xylazine®, 40 mg/kg ketamin, and a sterile 28-gauge wire ligature was placed around the cervical portion of the right first molar. Animals continued to receive basal diet or basal diet supplemented with 1.81 or 3.62 […] (Proctor et al., 2005) for 8 weeks before ligature placement.
# A histologic evaluation was performed by a single examiner (I.O.) who was masked to the identity of the samples. The specimens were fixed in a 10% neutral-buffered formalin solution and demineralized in an aqueous 10% formic acid solution. The specimens were then dehydrated, embedded in paraffin, and sectioned along the molars in a mesiodistal plane for hematoxylin and eosin staining, as described by Toker et al. Light microscopy (Nikon, Tokyo, Japan), and assessment was performed on the two sections with a thickness of about […], corresponding to the buccal and lingual areas between the first and second molars where ligatures had been placed.
# The areas of alveolar bone and interdental septum were analyzed under light microscopy, considering parameters including inflammatory cell infiltration (“ICI”) of the periodontal tissues, existing resorption lacunae (osteoclast surfaces), osteoblastic activity (forming surfaces) and the number of osteoclasts. […] Osteoclasts were counted based on their morphology.
# [3] = system: IL-1β, MMP-8, RANK, RANKL, OPG, MPO expression levels from periodontal tissue; conditions: for IL-1β protein level / MMP-8 protein level / MPO protein level / OPG protein level / RANK protein level / RANKL protein level: control = 100
# Source text: FIG. 1B depicts western blot strips Il-1B, MMP-8, RANK, RANK-L, OPG and MPO expression levels from periodontal tissue.
# as §1, §2, §3
# (§4) Animals were monitored weekly to ensure presence of the ligature, and the ligature was adjusted if necessary. At the end of the experiment, animals were euthanized, blood was collected via cardiac puncture, and serum biomarkers including Ca, Mg, phosphorus, alkaline phosphatase, and CRP (C-reactive protein) were measured. Whole maxillas were removed, placed in 10% formalin for 48 hours, and stored in 70% ethanol.
# gingivitis = test: Study in patients with gingivitis (Example 4); type: in vivo, human
# Description: 20 patients with gingivitis (having at least three of the following symptoms: swollen gums, bright red or purple gum tissue, gum tissue that is sensitive to touch, bleeding gums, bad breath) are studied. Five patients are administered once-daily arginine silicate (I); five patients are topically administered once-daily arginine silicate to the oral cavity (II); five patients are administered chlorhexidine mouthwash for twice-daily use (III); and five patients are administered standard over-the-counter mouthwash for twice daily use (IV).
# Patients are evaluated at four weeks, eight weeks, and twelve weeks. […] The trial is ceased at twelve weeks to avoid side effects from the chlorhexidine treatment.
# [4] = system: experimental periodontal disease (ligature model); conditions: for ALP (serum) / CRP (serum) / Ca (serum) / P (serum): rats
# Description: as §1, §2, §3, §4
# [5] = system: experimental periodontal disease (ligature model)
# Description: as §1, §2, §3
# Bones were imaged by micro-computed tomographic (μCT) scanning (SkyScan1172 Compact MKT (Kontich, Belgium)) at 16-μm resolution, and volumetric data were converted to DICOM format and imported in the Recon 1.6.9.4 SkyScan (Contich, Belgium) to generate 3D and multiplanar reconstructed images. An oral and maxillofacial radiologist (ST), blinded to the specific animal treatment, evaluated the μCT images of all animals to identify and score bony changes and performed all linear measurements using Recon software tools.
# To quantify the amount of bone loss induced by experimental periodontal disease (PD), the imaged volume was oriented with the nasal cavity floor parallel to the horizontal plane and the midpalatal suture parallel to the midsagittal plane. Then the volume was angled such that the long axis of the distal root of the first molar (D1) and the mesial root of the second molar (M2) were vertical to the horizontal plane. Then the distance between the cementoenamel junction (CEJ) and the alveolar bone crest (ABC) was measured at the center of D1 and M2. To quantitatively assess changes in the width of the buccal alveolar outline on axial slices, the imaged volume was oriented such that the floor of the nasal cavity was parallel to the horizontal plane and the midpalatal suture was parallel to the midsagittal plane. Then the shortest distance from the buccal surface of the root to the buccal outline of the alveolar ridge was measured for the mesial and distal roots of the first and second molars at the level of the hard palate.
# [6] = L + ASI I: ligature plus ASI, 1.81 mg/kg of diet
# [7] = L + ASI II: ligature plus ASI, 3.62 mg/kg of diet
substance,measurement,setting,value
arginine silicate inositol [ASI],improvement in periodontal symptoms,"[1]; group (A): scaling and root planning combined with daily arginine silicate, eight and twelve weeks",significant improvement
same,improvement in periodontal symptoms,"[1]; group (A): scaling and root planning combined with daily arginine silicate, four weeks",significant improvement
same,improvement in periodontal symptoms,"[1]; group (C): daily arginine silicate alone, eight and twelve weeks",significant improvement
same,improvement in periodontal symptoms,"[1]; group (C): daily arginine silicate alone, four weeks",minimal improvement
same,ICI (inflammatory cell infiltration),[2]; ASI treatment (both doses),significantly reduced
same,"ICI Dense, animals",[2]; L + ASI I: 1.81 mg/kg of diet,4 (%30.8) n (%)
same,"ICI Little visible, animals",[2]; L + ASI I: 1.81 mg/kg of diet,0 (%0) n (%)
same,"ICI Slightly visible, animals",[2]; L + ASI I: 1.81 mg/kg of diet,9 (%69.2) n (%)
same,"ICI Dense, animals",[2]; L + ASI II: 3.62 mg/kg of diet,2 (%15.4) n (%)
same,"ICI Little visible, animals",[2]; L + ASI II: 3.62 mg/kg of diet,0 (%0)^ n (%)
same,"ICI Slightly visible, animals",[2]; L + ASI II: 3.62 mg/kg of diet,11 (%84.6) n (%)
same,levels for IL-1β and MPO in the ASI II group in comparison to the ASI I group,[3]; 3.62 vs 1.81 mg/kg of diet,significantly lower
same,"levels for IL-1β, MMP-8, RANK, RANKL, OPG, MPO in comparison to the periodontitis group",[3]; ASI groups (both doses),significantly lower
same,IL-1β protein level,[3]; L + ASI I: 1.81 mg/kg of diet,"142.5 ± 2.53^a,b"
same,MMP-8 protein level,[3]; L + ASI I: 1.81 mg/kg of diet,"166.79 ± 7.86^a,b"
same,MPO protein level,[3]; L + ASI I: 1.81 mg/kg of diet,"180 ± 2.97^a,b"
same,OPG protein level,[3]; L + ASI I: 1.81 mg/kg of diet,"72.87 ± 4.67^a,b"
same,RANK protein level,[3]; L + ASI I: 1.81 mg/kg of diet,"189.27 ± 5.3^a,b"
same,RANKL protein level,[3]; L + ASI I: 1.81 mg/kg of diet,"150.11 ± 6.34^a,b"
same,IL-1β protein level,[3]; L + ASI II: 3.62 mg/kg of diet,"111.24 ± 2.35^a,b,c"
same,MMP-8 protein level,[3]; L + ASI II: 3.62 mg/kg of diet,"150.256 ± 11.6^a,b"
same,MPO protein level,[3]; L + ASI II: 3.62 mg/kg of diet,"159.59 ± 13.09^a,b,c"
same,OPG protein level,[3]; L + ASI II: 3.62 mg/kg of diet,"91.13 ± 3.04^a,b,c"
same,RANK protein level,[3]; L + ASI II: 3.62 mg/kg of diet,"174.31 ± 9.82^a,b"
same,RANKL protein level,[3]; L + ASI II: 3.62 mg/kg of diet,"138.35 ± 13.6^a,b"
same,reduction in symptoms of gingivitis,"gingivitis; group (I): administered once-daily, eight and twelve weeks",most significant reduction
same,reduction in symptoms of gingivitis,"gingivitis; group (I): administered once-daily, four weeks",significant reduction
same,reduction in symptoms of gingivitis,"gingivitis; group (II): topically administered once-daily to the oral cavity, eight and twelve weeks",most significant reduction
same,reduction in symptoms of gingivitis,"gingivitis; group (II): topically administered once-daily to the oral cavity, four weeks",significant reduction
same,serum calcium levels,[4]; ASI II group (3.62 mg/kg of diet),significantly reduced
same,serum CRP levels in comparison to the induced periodontitis group,[4]; ASI treatment groups (both doses),significantly lower
same,ALP (serum),[4]; [6],440.31 ± 69.93 U/L
same,CRP (serum),[4]; [6],0.16 ± 0.07^b mg/dl
same,Ca (serum),[4]; [6],10.37 ± 0.32 mg/dL
same,P (serum),[4]; [6],8.35 ± 1.82 mg/dL
same,ALP (serum),[4]; [7],380.54 ± 85.36 U/L
same,CRP (serum),[4]; [7],0.18 ± 0.06^b mg/dl
same,Ca (serum),[4]; [7],9.78 ± 0.66^c mg/dl
same,P (serum),[4]; [7],7.82 ± 1.61 mg/dL
same,bone mineral density with respect to the controls and the ASI I group,[5]; ASI II (3.62 mg/kg of diet),significantly increased
same,BMD (bone mineral density),[5]; L + ASI I: 1.81 mg/kg of diet,0.78 ± 0.07 g/cm^2
same,"DCEJ-DCB/DCEJ-DRAP, rate of bone loss",[5]; L + ASI I: 1.81 mg/kg of diet,0.41 ± 0.12 ^
same,"MCEJ-MCB/MCEJ-MRAP, rate of bone loss",[5]; L + ASI I: 1.81 mg/kg of diet,"0.49 ± 0.10 ^a,b"
same,"RF-RFCB/RF-RFAP, rate of bone loss",[5]; L + ASI I: 1.81 mg/kg of diet,"0.21 ± 0.04 ^a,b"
same,BMD (bone mineral density),[5]; L + ASI II: 3.62 mg/kg of diet,0.85 ± 0.06 ^b g/cm^2
same,"DCEJ-DCB/DCEJ-DRAP, rate of bone loss",[5]; L + ASI II: 3.62 mg/kg of diet,0.42 ± 0.08 ^
same,"MCEJ-MCB/MCEJ-MRAP, rate of bone loss",[5]; L + ASI II: 3.62 mg/kg of diet,"0.50 ± 0.10 ^a,b"
same,"RF-RFCB/RF-RFAP, rate of bone loss",[5]; L + ASI II: 3.62 mg/kg of diet,"0.22 ± 0.05 ^a,b"
